This assay has as its target T1, recombinant human NK3 receptor (Homo sapiens, UniProt P29371).
T1 construct: expressed in transfected cells; host or cells: HEK293 cells, transient expression; membranes
T1 sequence (P29371 1-465): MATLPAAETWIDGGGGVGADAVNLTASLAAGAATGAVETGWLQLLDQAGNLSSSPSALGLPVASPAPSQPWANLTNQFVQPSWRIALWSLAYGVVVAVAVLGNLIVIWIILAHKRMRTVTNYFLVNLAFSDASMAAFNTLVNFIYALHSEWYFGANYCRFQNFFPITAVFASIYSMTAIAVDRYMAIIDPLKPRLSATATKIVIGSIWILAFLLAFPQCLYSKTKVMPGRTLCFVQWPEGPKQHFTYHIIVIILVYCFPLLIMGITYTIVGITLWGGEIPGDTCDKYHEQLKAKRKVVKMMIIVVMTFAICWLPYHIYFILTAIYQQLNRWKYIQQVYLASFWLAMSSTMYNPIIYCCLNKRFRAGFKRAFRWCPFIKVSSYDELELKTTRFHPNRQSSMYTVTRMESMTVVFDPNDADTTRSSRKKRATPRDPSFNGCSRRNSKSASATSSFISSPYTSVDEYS
Description: [3H]SR142801 competition binding assay.

Where [1] appears, read: hNK-3 receptor affinity, membranes from HEK293 cells transiently expressing recombinant human NK3 receptor, [3H]SR142801, Cheng-Prussoff, read-out: Data Ki.

Read-outs that look alike come from different tables or passages of the source.

With `CN(C(=O)Oc1ccc(F)cc1)[C@@H]1CN(C(=O)C2CCN(C(=O)C3(C)CC3)CC2)C[C@H]1c1ccc(Cl)c(Cl)c1` [Example 6, {(3S,4R)-4-(3,4-Dichloro-phenyl)-1-[1-(1-methyl-cyclopropanecarbonyl)-piperidine-4-carbonyl]-pyrrolidin-3-yl}-methyl-carbamic acid 4-fluoro-phenyl ester], the Ki was determined as 0.5 nM. Consider `Cc1ccc(OC(=O)N(C)[C@@H]2CN(C(=O)C3CCN(C(=O)C4(C)CC4)CC3)C[C@H]2c2ccc(Cl)c(Cl)c2)cc1` [Example 17, {(3S,4R)-4-(3,4-Dichloro-phenyl)-1-[1-(1-methyl-cyclopropanecarbonyl)-piperidine-4-carbonyl]-pyrrolidin-3-yl}-methyl-carbamic acid p-tolyl ester], for which the Ki is 0.7 nM. Consider `CN(C(=O)Oc1ccc(Cl)cc1)[C@@H]1CN(C(=O)C2CCN(C(=O)C3(C)CC3)CC2)C[C@H]1c1ccc(Cl)c(Cl)c1` [Example 19, {(3S,4R)-4-(3,4-Dichloro-phenyl)-1-[1-(1-methyl-cyclopropanecarbonyl)-piperidine-4-carbonyl]-pyrrolidin-3-yl}-methyl-carbamic acid 4-chlorophenyl ester], for which the Ki worked out at 0.2 nM. On the same count and under the same terms, under `COc1ccc(OC(=O)N(C)[C@H]2CN(C(=O)C3CCN(CC4CC4)CC3)C[C@@H]2c2ccc(Cl)c(Cl)c2)cc1` [Example 20, [(3R,4S)-1-(1-Cyclopropylmethyl-piperidine-4-carbonyl)-4-(3,4-dichloro-phenyl)-pyrrolidin-3-yl]-methyl-carbamic acid 4-methoxy-phenyl ester] stands 72.4 nM; under `COc1ccc(OC(=O)N(C)[C@@H]2CN(C(=O)C3CCN(CC4CC4)CC3)C[C@H]2c2ccc(Cl)c(Cl)c2)cc1` [Example 21, [(3S,4R)-1-(1-Cyclopropylmethyl-piperidine-4-carbonyl)-4-(3,4-dichloro-phenyl)-pyrrolidin-3-yl]-methyl-carbamic acid 4-methoxy-phenyl ester], 10.4 nM.

For `CN(C(=O)OCCC1CC1)[C@H]1CN(C(=O)C2CCN(C(=O)C3(C)CC3)CC2)C[C@@H]1c1ccc(Cl)c(Cl)c1` [Example 35, {(3R,4S)-4-(3,4-Dichloro-phenyl)-1-[1-(1-methyl-cyclopropanecarbonyl)-piperidine-4-arbonyl]-pyrrolidin-3-yl}-methyl-carbamic acid 2-cyclopropyl-ethyl ester], under setting [1], the Ki came to 81.1 nM.

As to `CN(C(=O)OCCC1CC1)[C@@H]1CN(C(=O)C2CCN(C(=O)C3(C)CC3)CC2)C[C@H]1c1ccc(Cl)c(Cl)c1` [Example 36, {(3S,4R)-4-(3,4-Dichloro-phenyl)-1-[1-(1-methyl-cyclopropanecarbonyl)-piperidine-4-arbonyl]-pyrrolidin-3-yl}-methyl-carbamic acid 2-cyclopropyl-ethyl ester], the Ki under setting [1] is 33 nM.

With `CN(C(=O)Oc1ccc(F)cc1)[C@H]1CN(C(=O)C2CCN(C(=O)C3(C)CC3)CC2)C[C@@H]1c1ccc(Cl)cc1` [Example 38, {(3R,4S)-4-(4-Chloro-phenyl)-1-[1-(1-methyl-cyclopropanecarbonyl)-piperidine-4-carbonyl]-pyrrolidin-3-yl}-methyl-carbamic acid 4-fluoro-phenyl ester], the Ki amounted to 42 nM. For the compound `CN(C(=O)Oc1ccc(F)cc1)[C@@H]1CN(C(=O)C2CCN(C(=O)C3(C)CC3)CC2)C[C@H]1c1ccc(Cl)cc1` [Example 39, {(3S,4R)-4-(4-Chloro-phenyl)-1-[1-(1-methyl-cyclopropanecarbonyl)-piperidine-4-carbonyl]-pyrrolidin-3-yl}-methyl-carbamic acid 4-fluoro-phenyl ester], the Ki amounted to 11 nM. In the case of `CN(C(=O)Oc1ccc(F)cc1)[C@@H]1CN(C(=O)C2CCOCC2)C[C@H]1c1ccc(Cl)c(Cl)c1` [Example 51, [(3S,4R)-4-(3,4-Dichloro-phenyl)-1-(tetrahydro-pyran-4-carbonyl)-pyrrolidin-3-yl]-methyl-carbamic acid 4-fluoro-phenyl ester], the inhibition constant Ki came to 1.8 nM. Still for that read-out and setting: under `CN(C(=O)Oc1ccc(F)cc1)[C@@H]1CN(C(=O)[C@H]2CC[C@@H](O)CC2)C[C@H]1c1ccc(Cl)c(Cl)c1` [Example 60, [(3S,4R)-4-(3,4-Dichloro-phenyl)-1-(cis-4-hydroxy-cyclohexanecarbonyl)-pyrrolidin-3-yl]-methyl-carbamic acid 4-fluoro-phenyl ester] stands 1.7 nM. On to `CN(C(=O)OCCCC(F)(F)F)[C@H]1CN(C(=O)C2CCN(C(=O)C3(C)CC3)CC2)C[C@@H]1c1ccc(Cl)c(Cl)c1` [Example 81, {(3R,4S)-4-(3,4-Dichloro-phenyl)-1-[1-(1-methyl-cyclopropanecarbonyl)-piperidine-4-carbonyl]-pyrrolidin-3-yl}-methyl-carbamic acid 4,4,4-trifluoro-butyl ester], for which the inhibition constant (Ki) under setting [1] stood at 67 nM.

As to `CN(C(=O)OCCCC(F)(F)F)[C@@H]1CN(C(=O)C2CCN(C(=O)C3(C)CC3)CC2)C[C@H]1c1ccc(Cl)c(Cl)c1` [Example 82, {(3S,4R)-4-(3,4-Dichloro-phenyl)-1-[1-(1-methyl-cyclopropanecarbonyl)-piperidine-4-carbonyl]-pyrrolidin-3-yl}-methyl-carbamic acid 4,4,4-trifluoro-butyl ester], the Ki under setting [1] came out at 1.4 nM. Consider `CN(C(=O)Oc1ccc(F)cc1)[C@@H]1CN(C(=O)[C@H]2CC[C@H](O)CC2)C[C@H]1c1ccc(Cl)cc1` [Example 89, [(3S,4R)-4-(4-Chloro-phenyl)-1-(4-hydroxy-cyclohexanecarbonyl)-pyrrolidin-3-yl]-methyl-carbamic acid 4-fluoro-phenyl ester], for which the Ki amounted to 20.2 nM. With `CN(C(=O)Oc1ccc(F)cc1)[C@@H]1CN(C(=O)C2CCOCC2)C[C@H]1c1ccc(Cl)cc1` [Example 90, [(3S,4R)-4-(4-Chloro-phenyl)-1-(tetrahydro-pyran-4-carbonyl)-pyrrolidin-3-yl]-methyl-carbamic acid 4-fluoro-phenyl ester], the Ki came to 7.9 nM.

`CN(C(=O)Oc1ccc(F)cc1)[C@@H]1CN(C(=O)C2CCS(=O)(=O)CC2)C[C@H]1c1ccc(Cl)cc1` [Example 93, [(3S,4R)-4-(4-Chloro-phenyl)-1-(1,1-dioxo-hexahydro-1λ^6-thiopyran-4-carbonyl)-pyrrolidin-3-yl]-methyl-carbamic acid 4-fluoro-phenyl ester]: the Ki was 6.6 nM. As for `CN(C(=O)Oc1ccc(F)cc1)[C@@H]1CN(C(=O)C2CCN(c3ccc(C#N)cn3)CC2)C[C@H]1c1ccc(Cl)cc1` [Example 94, [(3S,4R)-4-(4-Chloro-phenyl)-1-(5′-cyano-3,4,5,6-tetrahydro-2H-[1,2′]bipyridinyl-4-carbonyl)-pyrrolidin-3-yl]-methyl-carbamic acid 4-fluoro-phenyl ester], the Ki was 0.2 nM. `CN(C(=O)OCCCC(F)(F)F)[C@H]1CN(C(=O)C2CCN(C(=O)C3(C)CC3)CC2)C[C@@H]1c1ccc(Cl)cc1` [Example 100, {(3R,4S)-4-(4-Chloro-phenyl)-1-[1-(1-methyl-cyclopropanecarbonyl)-piperidine-4-carbonyl]-pyrrolidin-3-yl}-methyl-carbamic acid 4,4,4-trifluoro-butyl ester]: the Ki under setting [1] stood at 12.2 nM. `CN(C(=O)Oc1ccc(F)cc1)[C@@H]1CN(C(=O)[C@H]2CC[C@H](C#N)CC2)C[C@H]1c1ccc(Cl)cc1` [Example 104, [(3S,4R)-4-(4-Chloro-phenyl)-1-(4-cyano-cyclohexanecarbonyl)-pyrrolidin-3-yl]-methyl-carbamic acid 4-fluoro-phenyl ester]: the Ki was 7.4 nM.

These data come from US9226916B2, “Pyrrolidine derivatives” (HOFFMANN-LA ROCHE INC., priority 2009, dated 2016).
